According to PubChem BioAssay AID330 (DTP/NCI, 2004):
Where “and” joins values, the source holds several entries; their conditions need not be identical. Equal entries are not always repeated. Inconclusive results and toxic doses are left out. How the source made its calls: active means survival T/C of 150% or more; inactive means T/C below 125% in these data.

System: P388 leukemia ip, CD2F1 mice, survival T/C
Assay: NCI In Vivo Anticancer Drug Screen. Data for tumor model P388 Leukemia (intraperitoneal) in CD2F1 (CDF1) mice
Details: endpoint: median survival time, higher = longer survival
Summary of the method: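 Mice carrying the transplanted tumor received test compound or vehicle. Survival was recorded in each group, and the value is the treated-group measurement divided by that of the vehicle-treated control group.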

[1] = dose: 25.0 mg/kg/injection, schedule: Q01DX009 (ip), vehicle: saline with Tween-80
[2] = dose: 50.0 mg/kg/injection, schedule: Q01DX009 (ip), vehicle: saline with Tween-80
[3] = dose: 100.0 mg/kg/injection, schedule: Q01DX009 (ip), vehicle: saline with Tween-80
[4] = dose: 200.0 mg/kg/injection, schedule: Q01DX009 (ip), vehicle: saline with Tween-80
[5] = dose: 60.0 mg/kg/injection, schedule: Q01DX005 (ip), vehicle: saline with Tween-80
[6] = dose: 120.0 mg/kg/injection, schedule: Q01DX005 (ip), vehicle: saline with Tween-80
[7] = dose: 240.0 mg/kg/injection, schedule: Q01DX005 (ip), vehicle: saline with Tween-80
[8] = dose: 100.0 mg/kg/injection, schedule: Q01DX001 (ip), vehicle: Klucel (hydroxypropylcellulose) (HPC)
[9] = dose: 200.0 mg/kg/injection, schedule: Q01DX001 (ip), vehicle: Klucel (hydroxypropylcellulose) (HPC)
[10] = dose: 100.0 mg/kg/injection, schedule: Q04DX002 (ip), vehicle: saline with Tween-80
[11] = dose: 200.0 mg/kg/injection, schedule: Q04DX002 (ip), vehicle: saline with Tween-80
[12] = dose: 50.0 mg/kg/injection, schedule: Q01DX005 (ip), vehicle: saline with Tween-80
[13] = dose: 100.0 mg/kg/injection, schedule: Q01DX005 (ip), vehicle: saline with Tween-80
[14] = dose: 200.0 mg/kg/injection, schedule: Q01DX005 (ip), vehicle: saline with Tween-80
[15] = dose: 50.0 mg/kg/injection, schedule: Q01DX005 (ip), vehicle: Klucel (hydroxypropylcellulose) (HPC)
[16] = dose: 100.0 mg/kg/injection, schedule: Q01DX005 (ip), vehicle: Klucel (hydroxypropylcellulose) (HPC)
[17] = dose: 200.0 mg/kg/injection, schedule: Q01DX005 (ip), vehicle: Klucel (hydroxypropylcellulose) (HPC)
[18] = dose: 60.0 mg/kg/injection, schedule: Q01DX005 (ip), vehicle: Klucel (hydroxypropylcellulose) (HPC)
[19] = dose: 120.0 mg/kg/injection, schedule: Q01DX005 (ip), vehicle: Klucel (hydroxypropylcellulose) (HPC)
[20] = dose: 240.0 mg/kg/injection, schedule: Q01DX005 (ip), vehicle: Klucel (hydroxypropylcellulose) (HPC)

Measured: T/C

CCOC(=O)C1=C(C#N)C2(CCC(OCc3ccccc3)CC2)C(=O)O1 (stereo not drawn)
inactive: [1] 90 % of control | dose: 25.0 mg/kg/injection, schedule: Q01DX009 (ip), vehicle: saline 104 % of control | [2] 92 % of control | dose: 50.0 mg/kg/injection, schedule: Q01DX009 (ip), vehicle: saline 104 % of control and 106 % of control and 100 % of control | [3] 119 % of control | dose: 100.0 mg/kg/injection, schedule: Q01DX009 (ip), vehicle: saline 108 % of control and 116 % of control and 102 % of control | [4] 123 % of control | dose: 200.0 mg/kg/injection, schedule: Q01DX009 (ip), vehicle: saline 119 % of control and 100 % of control

O=[N+]([O-])c1ccc(Sc2ccccn2)nc1Sc1ccccn1
inactive: dose: 0.79 mg/kg/injection, schedule: Q01DX009 (ip), vehicle: saline with Tween-80 100 % of control | dose: 1.56 mg/kg/injection, schedule: Q01DX009 (ip), vehicle: saline with Tween-80 104 % of control | dose: 3.12 mg/kg/injection, schedule: Q01DX009 (ip), vehicle: saline with Tween-80 100 % of control | [4] 92 % of control

O=C(O)COc1c2occc2cc2ccc(=O)oc12
inactive: [5] 97 % of control | [6] 96 % of control | [7] 100 % of control

CN(C)CCn1nc2n(c(=O)c1=O)CC(=O)N(C)c1ccc(Cl)cc1-2
inactive: [8] 100 % of control | [9] 101 % of control | dose: 400.0 mg/kg/injection, schedule: Q01DX001 (ip), vehicle: Klucel (hydroxypropylcellulose) (HPC) 96 % of control

O=c1cc[nH]c(=O)n1C1OC(CO)C(O)C1O (stereo not drawn)
inactive: dose: 50.0 mg/kg/injection, schedule: Q01DX005 (ip), vehicle: saline 108 % of control | dose: 100.0 mg/kg/injection, schedule: Q01DX005 (ip), vehicle: saline 99 % of control | dose: 200.0 mg/kg/injection, schedule: Q01DX005 (ip), vehicle: saline 102 % of control | dose: 400.0 mg/kg/injection, schedule: Q01DX005 (ip), vehicle: saline 98 % of control

C=NC1C=CCC=C1
inactive: [10] 112 % of control | [11] 91 % of control

O=C(O)c1cn(O)ccc1=O
inactive: [12] 94 % of control | [13] 100 % of control | [14] 97 % of control

Cc1ncc(Br)c(C(=O)N=C(N)N)n1
inactive: [15] 95 % of control | [16] 100 % of control | [17] 94 % of control

CC(=O)[O][Sn]([CH2]c1ccccc1)([CH2]c1ccccc1)[CH2]c1ccccc1
inactive: dose: 0.75 mg/kg/injection, schedule: Q01DX009 (ip), vehicle: saline 115 % of control | dose: 1.5 mg/kg/injection, schedule: Q01DX009 (ip), vehicle: saline 87 % of control | dose: 3.0 mg/kg/injection, schedule: Q01DX009 (ip), vehicle: saline 105 % of control | dose: 6.0 mg/kg/injection, schedule: Q01DX009 (ip), vehicle: saline 108 % of control

CCn1c(C)nc([N+](=O)[O-])c1Sc1ncn[nH]1
inactive: dose: 25.0 mg/kg/injection, schedule: Q01DX005 (ip), vehicle: Klucel (hydroxypropylcellulose) (HPC) 118 % of control | [15] 115 % of control and 120 % of control | [16] 121 % of control

O=C(Nc1cc(Cl)ccc1Cl)Nc1ccc(Cl)cc1C(=O)c1ccccc1
inactive: dose: 15.0 mg/kg/injection, schedule: Q01DX005 (ip), vehicle: saline with Tween-80 89 % of control | dose: 30.0 mg/kg/injection, schedule: Q01DX005 (ip), vehicle: saline with Tween-80 90 % of control | [7] 90 % of control

Cn1c(=O)c2c(-c3ccccc3)cc(-c3ccccc3)nc2n(C)c1=O
inactive: [10] 97 % of control | [11] 100 % of control | dose: 400.0 mg/kg/injection, schedule: Q04DX002 (ip), vehicle: saline with Tween-80 101 % of control

Nc1ncnc2c1ncn2CC(O)CCl (stereo not drawn)
inactive: [15] 100 % of control | [16] 99 % of control | [17] 100 % of control

COc1cc(/C=C2\N=C(c3cccc(C)c3)OC2=O)ccc1O
inactive: [2] 91 % of control | [3] 100 % of control | [4] 99 % of control

CCCCCCOC(=O)c1ccc(I)cc1
inactive: [2] 97 % of control | [3] 93 % of control | [4] 100 % of control

O=C[c-]1[c-][c-][c-][c-]1.[Fe+2].[c-]1[c-][c-][cH-][c-]1
inactive: dose: 6.25 mg/kg/injection, schedule: Q01DX009 (ip), vehicle: saline with Tween-80 106 % of control | dose: 12.5 mg/kg/injection, schedule: Q01DX009 (ip), vehicle: saline with Tween-80 95 % of control | [1] 97 % of control | [2] 99 % of control

CCOC(=O)CCCC(NC(=O)c1ccc(N2CCN(c3c(N)nc(N)nc3NC)CC2)cc1)C(=O)OCC (stereo not drawn)
inactive: [18] 91 % of control | [19] 87 % of control | [20] 96 % of control

Nc1nc(SCC(=O)O)[nH]c(=O)c1NS(=O)(=O)c1ccc([N+](=O)[O-])cc1
inactive: [18] 96 % of control | [19] 98 % of control | [20] 102 % of control

COc1cc2c(cc1OC)/C(=N/N=C1\CCCc3cc(OC)c(OC)cc31)CCC2
inactive: dose: 6.25 mg/kg/injection, schedule: Q01DX009 (ip), vehicle: other 93 % of control | dose: 6.25 mg/kg/injection, schedule: Q01DX009 (ip), vehicle: water 98 % of control | dose: 12.5 mg/kg/injection, schedule: Q01DX009 (ip), vehicle: other 92 % of control | dose: 12.5 mg/kg/injection, schedule: Q01DX009 (ip), vehicle: water 86 % of control | dose: 25.0 mg/kg/injection, schedule: Q01DX009 (ip), vehicle: other 92 % of control | dose: 25.0 mg/kg/injection, schedule: Q01DX009 (ip), vehicle: water 86 % of control | dose: 50.0 mg/kg/injection, schedule: Q01DX009 (ip), vehicle: other 90 % of control | dose: 100.0 mg/kg/injection, schedule: Q01DX009 (ip), vehicle: other 88 % of control | dose: 100.0 mg/kg/injection, schedule: Q01DX009 (ip), vehicle: water 91 % of control

Cc1nc([Se]c2nc(C)n3ccncc23)c2cnccn12
inactive: dose: 37.5 mg/kg/injection, schedule: Q01DX001 (ip), vehicle: saline with Tween-80 95 % of control | dose: 75.0 mg/kg/injection, schedule: Q01DX001 (ip), vehicle: saline with Tween-80 100 % of control | dose: 150.0 mg/kg/injection, schedule: Q01DX001 (ip), vehicle: saline with Tween-80 100 % of control

Clc1cccc2nnc(Br)n12
inactive: dose: 50.0 mg/kg/injection, schedule: Q01DX001 (ip), vehicle: Klucel (hydroxypropylcellulose) (HPC) 98 % of control | [8] 102 % of control | [9] 111 % of control

COC(=O)C1=COC(C)C2CN3CCc4c([nH]c5ccccc45)C3CC12 (stereo not drawn)
inactive: [12] 106 % of control | [5] 100 % of control | [13] 106 % of control | [6] 93 % of control | [14] 100 % of control | [7] 90 % of control
